# In patent publication US20240118281A1, “ANTICANCER COMPOUNDS AND USES THEREOF” (University of Florida Research Foundation, Incorporated, priority 2021, published 2024):
# Legend:
# [1] = molecular target: T1, AGR2 (Homo sapiens, UniProt O95994); assay: DDA-AGR2 binding assay, Streptavidin-Alkaline Phosphatase blot; design: made in house; host or cells: E. coli BL21(DE3), pET-45b(+)
# T1 sequence (O95994 21-175): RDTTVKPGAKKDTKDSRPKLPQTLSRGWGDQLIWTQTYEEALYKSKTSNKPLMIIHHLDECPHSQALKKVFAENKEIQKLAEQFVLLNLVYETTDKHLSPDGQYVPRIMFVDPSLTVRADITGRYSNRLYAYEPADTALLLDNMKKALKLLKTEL
# Experimental: Competent BL21(DE3) cells were transformed with either the AGR2/pET-45b(+) or AGR2 C81S/pET-45b(+) vectors. Protein expression was induced by the addition of 50 µM Isopropyl β-D-1-thiogalactopyranoside (Fisher Scientific, Fair Lawn, NJ) to bacterial cell cultures for 2.5 hours and shaking at 37° C. Bacterial cells were subsequently pelleted and dissolved in Mouse Tonicity Phosphate Buffered Saline (MTPBS) containing 1% Triton X-100 and sonicated for 20 seconds on ice, followed by centrifugation for 10 min at 4° C. to pellet cell debris. The supernatant was transferred to a new tube, followed by the addition of TALON Resin (Clontech, Mountain View, CA) and mixing on a Nutator for 30 min at 4° C. The TALON Resin was pelleted by centrifugation and washed twice with MTPBS and twice with MTPBS containing 30 mM Imidazole. Protein bound to the TALON Resin was eluted with 400 mM Imidazole and precipitated with 60% saturated ammonium sulfate. The precipitated protein was pelleted by centrifugation, dissolved in MTPBS containing 1 mM DTT and 1 mM EDTA, and subsequently dialyzed against a solution of MTPBS containing 10 μM DTT and 30% Glycerol.
# Purified His6-AGR2 or His6-AGR2 C81S, as prepared above, or His6-AGR2 (PRO-580) or His6-AGR3 (PRO-242) obtained from ProSpec (New Brunswick NJ) were incubated with or without varying concentrations of the unlabeled DDA competitors, tcyDTDO or dMtcyDTDO, and 30 μM Biotin-GlyPyrDTDO or Biotin-PyrDTDO in buffer (20 mM HEPES (pH 7.4), 1 mM EDTA, 1 mM EGTA, 5% Glycerol, 1 nM Microcystin, 1 mM Na3VO4, and 40 mM Na2H2P2O7) containing 1% Triton-X 100 for 30 min at 37° C. […] Therefore, the two probes were used interchangeably. Reactions were stopped by boiling the samples in 2×-SDS-Sample Buffer containing 100 mM NEM for 10 min. Biotin-DDA labeling of protein was verified by blotting with Streptavidin-Alkaline Phosphatase (Rockland Immunochemicals, Inc., Limerick, PA). ERp44 (PRO-547) and PDIA1 (ENZ-262) were obtained from ProSpec and used in experiments examining the binding of these proteins to Biotin-PyrDTDO.
# [2] = system: DR4; assay: Surface biotinylation; format: cell-based; details: MDA-MB-468 cells, 2.5 μM, 24 h, amine- or thiol-reactive probes, FIG. 6D
# Experimental: (§1) Cell surface proteins were labeled by incubation of cells with 1.6 mM Sulfo-NHS-SS-Biotin (Thermo Fisher Scientific, Waltham, MA) or 1.6 mM Biotin-dPEG3-Maleimide (MilliporeSigma, St. Louis, MO) in Phosphate-Buffered Saline (PBS), pH 8.0 for 30 minutes at 4° C. The cells were subsequently washed three times with PBS, and proteins were extracted in a buffer containing 1% Triton X-100 extraction buffer in the absence of reducing agents. Cell extracts were then incubated with Streptavidin-agarose beads (Thermo Fisher Scientific, Waltham, MA) for 2.5 h at 4° C. Following centrifugation, the supernatant containing non-biotinylated proteins (flow-through) was retained and boiled in 2×-SDS-Sample Buffer containing 1% 2-mercaptoethanol. Streptavidin-agarose beads bound to biotinylated proteins were washed four times with 0.1% Triton X-100 extraction buffer, followed by boiling in 2×-SDS-Sample Buffer containing 1% 2-mercaptoethanol. Samples were then analyzed by immunoblot or blotting with Streptavidin-Alkaline Phosphatase.
# [3] = system: DR5; assay: Surface biotinylation; format: cell-based; details: MDA-MB-468 cells, 2.5 μM, 24 h, amine- or thiol-reactive probes, FIG. 6D
# Experimental: as §1
# [4] = system: DR5; assay: Disulfide bond-mediated oligomerization and levels, non-reducing immunoblot; format: cell-based
# From the text: The BT20, BT474, BT549, MCF7, MDA-MB-231, MDA-MB-436, MDA-MB-468, HCC1143, HCC1500, HCC1569, HCC1937, HCC1954, Hs578t, and T47D cells lines were purchased from American Type Culture Collection (ATCC) (Manassas, VA). The HCI-001 cell line was derived from an ER-/PR-/HER2- patient-derived xenograft originally isolated from a patient as described previously (DeRose Y S, et al. Nat Med 2011; 17: 1514-1520). The HCI-001/LVM2 model was derived from the HCI-001 cell line by performing two rounds of selection for liver metastasis, as described previously (Wang M, et al. Cell Death Discovery 2019; 5: 153). Cell lines were grown in Dulbecco's Modified Eagle's Medium (GE Healthcare Life Sciences, Logan, UT) containing 10% fetal bovine serum (10% FBS—DMEM) in a humidified incubator with 5% CO2 at 37° C. Cell lysates were prepared as described previously (Law B K, et al. Mol Cell Biol. 2002; 22: 8184-8198). Immunoblot analysis was performed utilizing the following antibodies purchased from Cell Signaling Technology (Beverly, MA) [Akt, #4691; P-Akt[T308], #13038; ATF4, #11815; CHOP, #2895; Cleaved Caspase 8, #9496; DR4, #42533; DR5, #8074; EGFR, #4267; GRP78, #3177; HER3, #4754; PARP, #9532; PDIA1, #3501; XBP1s, #12782], from Santa Cruz Biotechnology (Santa Cruz, CA) [Actin, sc-47778; AGR2/3, sc-376653; AGR3, sc-390940; ERO1-a, sc-100805; and ERp44, sc-393687], or from Rockland Immunochemicals, Inc. (Limerick, PA), Streptavidin-Alkaline Phosphatase conjugated (SA-AP), S000-05.
# To assess protein disulfide bond-mediated oligomerization, cells were treated with DDAs for 24 h in 10% FBS-DMEM. Cells were subsequently scraped directly into the media and pelleted by centrifugation. Cells were extracted directly into boiling 2×-SDS-Sample Buffer containing 100 mM NEM and boiled for 10 min. Samples were sonicated, followed by centrifugation for 20 min at room temperature. Samples were subsequently analyzed by SDS-PAGE and immunoblot.
# [5] = MDA-MB-468 cells, 24 h, compared with tcyDTDO, FIG. 1E left
smiles,measurement,setting,value
"CO[C@H]1C[C@@H]2CS(=O)(=O)SC[C@H]2C[C@@H]1OC [dMtcyDTDO, dimethoxy-tcyDTDO]","Ability to block Biotin-GlyPyrDTDO binding to AGR2, compared with tcyDTDO","[1]; FIG. 2E, 9E-F",more effective competitor
same,Competition with Biotin-GlyPyrDTDO binding to AGR2,"[1]; molar excess, pre-incubation with 600 μM, FIG. 2D",partially prevented Biotin-GlyPyrDTDO binding
same,Cell surface levels of DR4,[2],increased cell surface levels of DR4 and DR5
same,Cell surface levels of DR5,[3],increased cell surface levels of DR4 and DR5
same,"Levels and oligomerization of DR5, densitometry","[4]; 0, 1.25, 2.5, 5 uM, FIG. 1F",increases the levels of both oligomeric and monomeric forms of DR5
same,Concentration at which oligomerization of DR5 was observed,"[4]; MDA-MB-468 cells, 24 h, FIG. 1E right",1.25 µM
same,DR4/5 oligomerization at the same concentration (DR5),[4]; [5],more DR4/5 oligomerization
same,DR5 levels at the same concentration,[4]; [5],higher DR5 levels
